Data set [1] has as its system Leucine-rich repeat serine/threonine-protein kinase 2 (Homo sapiens), Q5S007 [G2019S]. The data set is described as follows: Inhibition of purified N-terminal GST-tagged LRRK2 G2019S mutant autophosphorylation activity using myelin basic protein as substrate at 25 uM.
Data set [2] is described as follows: Neurotoxicity in rat primary cortical neurons assessed as cell survival at 10 uM after 24 hrs by MTT assay. Type of data set: toxicity, cell-based, Cerebral cortex neuron. The note with it: read-out: Activity.
Data set [3] has as its target Dual specificity tyrosine-phosphorylation-regulated kinase 1A (Homo sapiens) (UniProt Q13627). Nature of the data set: Inhibition of DYRK1A expressed in bacteria using [gamma32-P]ATP at 25 uM.
The target of data set [4] is Leucine-rich repeat serine/threonine-protein kinase 2 (Homo sapiens, UniProt Q5S007, G2019S). The data set is described as follows: Inhibition of purified N-terminal GST-tagged LRRK2 G2019S mutant autophosphorylation activity using [gamma32-P]ATP.
Chain of Leucine-rich repeat serine/threonine-protein kinase 2 (Q5S007 whole entry G2019S): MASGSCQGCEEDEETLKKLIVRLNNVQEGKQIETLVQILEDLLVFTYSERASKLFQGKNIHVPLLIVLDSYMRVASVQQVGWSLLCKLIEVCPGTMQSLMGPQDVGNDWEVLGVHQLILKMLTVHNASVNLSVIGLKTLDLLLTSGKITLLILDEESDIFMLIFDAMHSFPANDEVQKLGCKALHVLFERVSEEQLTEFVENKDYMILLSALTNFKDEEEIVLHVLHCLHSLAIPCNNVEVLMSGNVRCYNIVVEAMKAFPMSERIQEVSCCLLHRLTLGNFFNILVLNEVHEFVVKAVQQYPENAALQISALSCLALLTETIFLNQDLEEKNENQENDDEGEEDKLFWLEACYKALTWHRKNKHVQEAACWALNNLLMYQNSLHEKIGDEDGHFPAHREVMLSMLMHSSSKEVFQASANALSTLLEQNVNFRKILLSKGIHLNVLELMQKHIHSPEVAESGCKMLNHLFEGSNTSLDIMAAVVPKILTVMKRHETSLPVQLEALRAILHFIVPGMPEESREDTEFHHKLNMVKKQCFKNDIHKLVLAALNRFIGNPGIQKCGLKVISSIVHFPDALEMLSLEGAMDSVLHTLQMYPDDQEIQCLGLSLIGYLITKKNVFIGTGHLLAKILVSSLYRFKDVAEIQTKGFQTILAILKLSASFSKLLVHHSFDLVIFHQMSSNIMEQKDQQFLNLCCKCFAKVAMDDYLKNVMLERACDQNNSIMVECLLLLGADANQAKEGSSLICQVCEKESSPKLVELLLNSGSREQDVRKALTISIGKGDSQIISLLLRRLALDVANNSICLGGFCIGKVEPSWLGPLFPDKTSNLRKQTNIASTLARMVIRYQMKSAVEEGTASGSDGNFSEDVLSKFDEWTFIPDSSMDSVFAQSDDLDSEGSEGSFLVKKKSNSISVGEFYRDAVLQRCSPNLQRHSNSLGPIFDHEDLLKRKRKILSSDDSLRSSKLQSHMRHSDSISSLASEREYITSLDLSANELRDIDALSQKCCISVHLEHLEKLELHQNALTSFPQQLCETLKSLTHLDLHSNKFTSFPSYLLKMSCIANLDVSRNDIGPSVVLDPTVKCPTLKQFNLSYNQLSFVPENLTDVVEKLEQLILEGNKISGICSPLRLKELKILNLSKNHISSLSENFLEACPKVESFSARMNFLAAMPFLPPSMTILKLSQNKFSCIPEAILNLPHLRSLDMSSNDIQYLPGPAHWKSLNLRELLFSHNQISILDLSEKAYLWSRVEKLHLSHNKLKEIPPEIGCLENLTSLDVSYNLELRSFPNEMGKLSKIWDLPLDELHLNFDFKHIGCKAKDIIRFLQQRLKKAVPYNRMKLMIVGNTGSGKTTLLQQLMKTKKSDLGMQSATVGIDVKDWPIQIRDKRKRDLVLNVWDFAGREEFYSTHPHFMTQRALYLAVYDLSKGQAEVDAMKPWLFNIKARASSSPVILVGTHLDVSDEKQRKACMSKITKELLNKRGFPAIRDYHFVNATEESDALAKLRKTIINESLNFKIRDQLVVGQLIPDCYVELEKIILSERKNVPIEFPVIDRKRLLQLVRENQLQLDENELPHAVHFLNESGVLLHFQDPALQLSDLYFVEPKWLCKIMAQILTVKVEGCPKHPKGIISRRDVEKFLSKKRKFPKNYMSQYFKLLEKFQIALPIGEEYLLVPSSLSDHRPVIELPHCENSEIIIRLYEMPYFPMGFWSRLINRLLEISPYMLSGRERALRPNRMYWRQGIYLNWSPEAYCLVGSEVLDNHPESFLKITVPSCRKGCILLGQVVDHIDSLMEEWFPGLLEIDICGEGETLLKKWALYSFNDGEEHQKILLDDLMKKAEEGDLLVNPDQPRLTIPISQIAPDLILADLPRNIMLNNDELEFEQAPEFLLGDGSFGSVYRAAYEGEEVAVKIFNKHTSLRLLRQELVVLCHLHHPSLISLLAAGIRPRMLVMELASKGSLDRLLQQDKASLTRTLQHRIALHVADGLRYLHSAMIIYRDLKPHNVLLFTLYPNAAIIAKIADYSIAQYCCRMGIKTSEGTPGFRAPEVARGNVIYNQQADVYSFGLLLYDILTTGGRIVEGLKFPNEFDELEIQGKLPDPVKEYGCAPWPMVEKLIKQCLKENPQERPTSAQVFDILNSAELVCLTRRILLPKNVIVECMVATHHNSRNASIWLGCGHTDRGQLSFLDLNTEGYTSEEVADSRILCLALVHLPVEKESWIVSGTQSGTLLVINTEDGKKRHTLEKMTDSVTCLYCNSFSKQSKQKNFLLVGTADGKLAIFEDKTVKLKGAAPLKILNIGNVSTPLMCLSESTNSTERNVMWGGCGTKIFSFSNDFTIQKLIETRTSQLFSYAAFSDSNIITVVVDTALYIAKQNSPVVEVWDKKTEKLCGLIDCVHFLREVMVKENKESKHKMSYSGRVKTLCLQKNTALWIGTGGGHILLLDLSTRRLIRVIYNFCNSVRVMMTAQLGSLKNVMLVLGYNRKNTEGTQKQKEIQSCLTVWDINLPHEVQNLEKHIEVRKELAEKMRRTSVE
A short description of data set [5]: Neurotoxicity in rat primary cortical neurons assessed as cell survival at 100 uM after 24 hrs by MTT assay. Format: toxicity, cell-based. The note with it: cerebral cortex neuron.
In data set [6] the target is Leucine-rich repeat serine/threonine-protein kinase 2 (Homo sapiens) (UniProt Q5S007). Nature of the data set: Inhibition of wild type LRRK2 expressed in mouse SN4741 cells assessed as reduction in hydrogen peroxide-induced neurotoxicity at 10 uM by measuring cell survival after 48 hrs by crystal violet assay relative to control. Type of data set: cell-based.
Chain of Leucine-rich repeat serine/threonine-protein kinase 2 (Homo sapiens) (Q5S007 whole entry): as the sequence (Q5S007 whole entry G2019S) above, with S2019G counted along it
Data set [7] deals with Leucine-rich repeat serine/threonine-protein kinase 2 (Homo sapiens), Q5S007 [G2019S]. The data set is described as follows: Inhibition of LRRK2 G2019S mutant expressed in mouse SN4741 cells assessed as reduction in hydrogen peroxide-induced neurotoxicity at 10 uM by measuring cell survival after 48 hrs by crystal violet assay relative to control. Format: cell-based.
Chain of Leucine-rich repeat serine/threonine-protein kinase 2 (Homo sapiens), Q5S007 [G2019S] (Q5S007 whole entry G2019S): as the sequence (Q5S007 whole entry G2019S) above

The source made the active and inactive calls. The rule behind the calls is not given here.

In the case of `COc1ccc(/C=N/Nc2ccc3ccccc3n2)cc1`, the inhibition entry in data set [1] is “Active”.

For the molecule `Cc1ccc2cc(C)c(N/N=C/c3ccc(O)cc3)nc2c1`, the inhibition entry in data set [1] was “Active”.

As for `Cc1cc(N/N=C/c2ccc(O)c(O)c2)nc2ccccc12`, the inhibition entry in data set [1] was “Active”. Besides, the viability at 24 h, 10 µM in data set [2] was determined as 85%. For the same molecule, in data set [3], the inhibition result is “inactive”. The same molecule showed an IC50 in data set [4] of 13.2 µM. Moreover, the Activity result in data set [5] is “Toxic”; in data set [6] it was 50%; in data set [7] it was 50%.

Take `Oc1ccc(/C=N/Nc2ccc3ccccc3n2)c(O)c1`: the inhibition result in data set [1] was “Active”.

For `COc1cc(/C=N/Nc2nc3cc(C)ccc3cc2C)ccc1O`, in data set [1], the inhibition entry was “Active”.
